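Protocol summary: plate cells (96-well), add compound at 5 concentrations, incubate 48 h, interpolate endpoints linearly. GI50 is the concentration that inhibits growth by half.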 Active and inactive are the calls of the source. No stated cut-off is given here; in the data, active = GI50 up to about 1.1 µM and inactive = higher.
Assays:
Assay in all cases: inhibition of tumour cell growth, NCI panel, 48 h
OVCAR-3 = test system: OVCAR-3
NCI-H522 = test system: NCI-H522
HCT-116 = test system: HCT-116
Hs-578T = test system: Hs-578T
BT-549 = test system: BT-549
NCI-H23 = test system: NCI-H23
KM12 = test system: KM12
PC-3 = test system: PC-3
IGROV-1 = test system: IGROV-1
HCC 2998 = test system: HCC 2998
CAKI-1 = test system: CAKI-1
COLO 205 = test system: COLO 205
SK-OV-3 = test system: SK-OV-3
OVCAR-5 = test system: OVCAR-5
NCI-H460 = test system: NCI-H460
SW-620 = test system: SW-620
ACHN = test system: ACHN
A549 = test system: A549
A498 = test system: A498
MDA-MB-231 = test system: MDA-MB-231
HT-29 = test system: HT-29
UO-31 = test system: UO-31
HCT-15 = test system: HCT-15
OVCAR-8 = test system: OVCAR-8
RXF 393 = test system: RXF 393
MDA-N = test system: MDA-N
UACC-62 = test system: UACC-62
K562 = test system: K562
SF-268 = test system: SF-268
DU-145 = test system: DU-145
EKVX = test system: EKVX
NCI/ADR-RES = test system: NCI/ADR-RES
HL-60 = test system: HL-60
CCRF-CEM = test system: CCRF-CEM
M14 = test system: M14
SK-MEL-28 = test system: SK-MEL-28
MDA-MB-435 = test system: MDA-MB-435
T47D = test system: T47D
SN12C = test system: SN12C
SK-MEL-5 = test system: SK-MEL-5
LOX IMVI = test system: LOX IMVI
NCI-H226 = test system: NCI-H226
MCF7 = test system: MCF7
U-251 = test system: U-251
HOP-62 = test system: HOP-62
SNB-19 = test system: SNB-19
TK-10 = test system: TK-10
SK-MEL-2 = test system: SK-MEL-2
UACC-257 = test system: UACC-257
OVCAR-4 = test system: OVCAR-4
SF-295 = test system: SF-295
Malme-3M = test system: Malme-3M
786-0 = test system: 786-0
SNB-75 = test system: SNB-75
SF-539 = test system: SF-539
HOP-92 = test system: HOP-92
SR = test system: SR
MOLT-4 = test system: MOLT-4
RPMI-8226 = test system: RPMI-8226

## O=C(Nc1cccc2ccccc12)c1ccccc1
OVCAR-3
  GI50: 11.8 µM (inactive)
NCI-H522
  GI50: 68.7 µM (inactive)
HCT-116
  GI50: > 100 µM (inactive)
Hs-578T
  GI50: > 100 µM (inactive)
BT-549
  GI50: > 100 µM (inactive)
NCI-H23
  GI50: > 100 µM (inactive)
KM12
  GI50: > 100 µM (inactive)
PC-3
  GI50: 72.3 µM (inactive)
IGROV-1
  GI50: > 100 µM (inactive)
HCC 2998
  GI50: > 100 µM (inactive)
CAKI-1
  GI50: 99.1 µM (inactive)
COLO 205
  GI50: 97.7 µM (inactive)
SK-OV-3
  GI50: > 100 µM (inactive)
OVCAR-5
  GI50: > 100 µM (inactive)
NCI-H460
  GI50: > 100 µM (inactive)
SW-620
  GI50: 34.4 µM (inactive)
ACHN
  GI50: > 100 µM (inactive)
A549
  GI50: > 100 µM (inactive)
A498
  GI50: > 100 µM (inactive)
MDA-MB-231
  GI50: > 100 µM (inactive)
HT-29
  GI50: 47.5 µM (inactive)
UO-31
  GI50: > 100 µM (inactive)
HCT-15
  GI50: 98.2 µM
OVCAR-8
  GI50: > 100 µM (inactive)
RXF 393
  GI50: 26.7 µM (inactive)
MDA-N
  GI50: 77.6 µM (inactive)
UACC-62
  GI50: 86.7 µM (inactive)
K562
  GI50: 76.6 µM (inactive)
SF-268
  GI50: > 100 µM (inactive)
DU-145
  GI50: > 100 µM (inactive)
EKVX
  GI50: > 100 µM (inactive)
NCI/ADR-RES
  GI50: > 100 µM (inactive)
HL-60
  GI50: > 100 µM (inactive)
CCRF-CEM
  GI50: 27.1 µM (inactive)
M14
  GI50: > 100 µM (inactive)
SK-MEL-28
  GI50: > 100 µM (inactive)
MDA-MB-435
  GI50: 22.6 µM (inactive)
T47D
  GI50: 11.5 µM (inactive)
SN12C
  GI50: > 100 µM (inactive)
SK-MEL-5
  GI50: 53.5 µM (inactive)
LOX IMVI
  GI50: > 100 µM (inactive)
NCI-H226
  GI50: > 100 µM (inactive)
MCF7
  GI50: 8.89 µM (inactive)
U-251
  GI50: > 100 µM (inactive)
HOP-62
  GI50: 81.3 µM (inactive)
SNB-19
  GI50: > 100 µM (inactive)
TK-10
  GI50: > 100 µM (inactive)
SK-MEL-2
  GI50: 91.2 µM (inactive)
UACC-257
  GI50: > 100 µM (inactive)
OVCAR-4
  GI50: 24.5 µM (inactive)
SF-295
  GI50: > 100 µM (inactive)
Malme-3M
  GI50: 88.3 µM (inactive)
786-0
  GI50: > 100 µM (inactive)
SNB-75
  GI50: 21.8 µM (inactive)
SF-539
  GI50: 64.7 µM (inactive)

## CCCCCCCC(CC(=O)NC(CO)C(=O)NC(CO)CC(C)C)OC(=O)CC(CCCCCCC)OC(=O)CC(CCCCCCC)OC1OC(C)C(O)C(OC2OC(C)C(O)C(OC(C)=O)C2O)C1O (configuration not stated)
OVCAR-3
  GI50: 10.7 µM (inactive)
NCI-H522
  GI50: 15 µM (inactive)
HCT-116
  GI50: 13.1 µM (inactive)
Hs-578T
  GI50: 4.1 µM (inactive)
BT-549
  GI50: 6.47 µM (inactive)
NCI-H23
  GI50: 14.2 µM (inactive)
KM12
  GI50: 8.99 µM (inactive)
PC-3
  GI50: 7.6 µM (inactive)
IGROV-1
  GI50: 12.3 µM (inactive)
HCC 2998
  GI50: 11.2 µM (inactive)
CAKI-1
  GI50: 15.7 µM (inactive)
COLO 205
  GI50: 5.86 µM (inactive)
SK-OV-3
  GI50: 17 µM (inactive)
OVCAR-5
  GI50: 11.7 µM (inactive)
NCI-H460
  GI50: 13.3 µM (inactive)
SW-620
  GI50: 14.9 µM (inactive)
ACHN
  GI50: 17.2 µM (inactive)
HOP-92
  GI50: 10.9 µM (inactive)
A549
  GI50: 12.5 µM (inactive)
A498
  GI50: 13.2 µM (inactive)
MDA-MB-231
  GI50: 11.3 µM (inactive)
HT-29
  GI50: 7.8 µM (inactive)
UO-31
  GI50: 14.9 µM (inactive)
OVCAR-8
  GI50: 13.9 µM (inactive)
RXF 393
  GI50: 8.34 µM (inactive)
SR
  GI50: 3.27 µM (inactive)
MDA-N
  GI50: 5.41 µM (inactive)
UACC-62
  GI50: 12.9 µM (inactive)
K562
  GI50: 12.4 µM (inactive)
SF-268
  GI50: 12 µM (inactive)
DU-145
  GI50: 10.4 µM (inactive)
EKVX
  GI50: 15.3 µM (inactive)
HL-60
  GI50: 5.69 µM (inactive)
CCRF-CEM
  GI50: 5.2 µM (inactive)
M14
  GI50: 10.7 µM (inactive)
SK-MEL-28
  GI50: 12.2 µM (inactive)
MDA-MB-435
  GI50: 11 µM (inactive)
T47D
  GI50: 12.9 µM (inactive)
SN12C
  GI50: 7.05 µM (inactive)
SK-MEL-5
  GI50: 12.6 µM (inactive)
NCI-H226
  GI50: 17.4 µM (inactive)
MCF7
  GI50: 11.9 µM (inactive)
U-251
  GI50: 4.2 µM (inactive)
HOP-62
  GI50: 12.2 µM (inactive)
SNB-19
  GI50: 6.43 µM (inactive)
MOLT-4
  GI50: 2.81 µM (inactive)
TK-10
  GI50: 15.6 µM (inactive)
UACC-257
  GI50: 5.77 µM (inactive)
OVCAR-4
  GI50: 12.8 µM (inactive)
SF-295
  GI50: 15.8 µM (inactive)
Malme-3M
  GI50: 16 µM (inactive)
786-0
  GI50: 13.4 µM (inactive)
SNB-75
  GI50: 5.56 µM (inactive)
SF-539
  GI50: 12.1 µM (inactive)

## CC(C(O)Cc1ccccc1)N(C)/N=N/c1ccc([N+](=O)[O-])cc1 (configuration not stated)
OVCAR-3
  GI50: 14.8 µM (inactive)
HCT-116
  GI50: 16.4 µM (inactive)
Hs-578T
  GI50: 24 µM (inactive)
BT-549
  GI50: 19.6 µM (inactive)
NCI-H23
  GI50: 20.1 µM (inactive)
KM12
  GI50: 21.7 µM (inactive)
PC-3
  GI50: 18.3 µM (inactive)
IGROV-1
  GI50: 19.4 µM (inactive)
HCC 2998
  GI50: 16.7 µM (inactive)
CAKI-1
  GI50: 21.9 µM (inactive)
COLO 205
  GI50: 21.2 µM (inactive)
SK-OV-3
  GI50: 22.3 µM (inactive)
OVCAR-5
  GI50: 25.5 µM (inactive)
NCI-H460
  GI50: 15.2 µM (inactive)
SW-620
  GI50: 23.9 µM (inactive)
ACHN
  GI50: 25.6 µM (inactive)
A549
  GI50: 23.1 µM (inactive)
MDA-MB-231
  GI50: 14.6 µM (inactive)
HT-29
  GI50: 18.6 µM (inactive)
UO-31
  GI50: 15.2 µM (inactive)
HCT-15
  GI50: 22.8 µM
OVCAR-8
  GI50: 17.6 µM (inactive)
RXF 393
  GI50: 1.19 µM (inactive)
MDA-N
  GI50: 19.3 µM (inactive)
UACC-62
  GI50: 18.8 µM (inactive)
K562
  GI50: 27.2 µM (inactive)
SF-268
  GI50: 21 µM (inactive)
DU-145
  GI50: 27 µM (inactive)
EKVX
  GI50: 22.9 µM (inactive)
NCI/ADR-RES
  GI50: 18.8 µM (inactive)
HL-60
  GI50: 84.1 µM (inactive)
CCRF-CEM
  GI50: 29.6 µM (inactive)
M14
  GI50: 16.8 µM (inactive)
SK-MEL-28
  GI50: 18 µM (inactive)
MDA-MB-435
  GI50: 18.9 µM (inactive)
T47D
  GI50: 23.8 µM (inactive)
SN12C
  GI50: 22 µM (inactive)
SK-MEL-5
  GI50: 18.6 µM (inactive)
NCI-H226
  GI50: 19.5 µM (inactive)
MCF7
  GI50: 24 µM (inactive)
U-251
  GI50: 17.7 µM (inactive)
HOP-62
  GI50: 16.7 µM (inactive)
SNB-19
  GI50: 39.4 µM (inactive)
MOLT-4
  GI50: 18.2 µM (inactive)
TK-10
  GI50: 22.5 µM (inactive)
SK-MEL-2
  GI50: 16.9 µM (inactive)
UACC-257
  GI50: 21.4 µM (inactive)
OVCAR-4
  GI50: 29.9 µM (inactive)
SF-295
  GI50: 19.8 µM (inactive)
Malme-3M
  GI50: 22.2 µM (inactive)
786-0
  GI50: 18.5 µM (inactive)
RPMI-8226
  GI50: 16.9 µM (inactive)
SNB-75
  GI50: 23.1 µM (inactive)
